Measured values as given in US6669925B1, “Sigma-2 receptors as biomarkers of tumor cell proliferation” (Wake Forest University, priority 2000, dated 2003).
Like-named read-outs stand apart in the source and are kept apart here.

Tests used:
σ2 receptors = molecular target: T1, σ2 receptors (Rattus norvegicus, UniProt Q5U3Y7); assay: In vitro binding to σ2 receptors: inhibition of [3H]DTG binding to rat liver homogenates
T1 construct: from tissue; host or cells: rat liver homogenate (per the earlier reading's assay description)
T1 sequence (Q5U3Y7 1-176): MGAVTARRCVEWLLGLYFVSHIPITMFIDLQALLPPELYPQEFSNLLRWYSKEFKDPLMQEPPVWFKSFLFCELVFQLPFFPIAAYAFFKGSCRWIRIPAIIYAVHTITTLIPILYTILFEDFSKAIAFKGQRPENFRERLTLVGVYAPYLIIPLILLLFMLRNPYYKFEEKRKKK
Excerpt: (§1) The ability to bind to sigma-1 or sigma-2 can be measured using methods currently known to those of skill in the art or using those techniques described in U.S. application Ser. No. 60/013717, filed Mar. 30, 1996; in U.S. application Ser. No. 09/142935, filed Sep. 17, 1998; or in U.S. application Ser. No. 09/528398, filed Mar. 20, 2000.

σ1 receptors = molecular target: T2, σ1 receptors (Cavia porcellus, UniProt Q60492); assay: In vitro binding to σ1 receptors: inhibition of [3H](+)-pentazocine binding to guinea pig brain homogenates
T2 construct: from tissue; host or cells: guinea pig brain homogenate (per the earlier reading's assay description)
T2 sequence (Q60492 whole entry): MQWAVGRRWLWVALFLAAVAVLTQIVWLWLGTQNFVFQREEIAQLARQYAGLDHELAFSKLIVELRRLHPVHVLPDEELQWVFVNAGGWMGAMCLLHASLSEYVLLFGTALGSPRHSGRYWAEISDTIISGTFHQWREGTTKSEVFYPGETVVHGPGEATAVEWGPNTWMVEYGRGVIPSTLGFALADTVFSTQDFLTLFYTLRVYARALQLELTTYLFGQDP
Excerpt: as §1

[1] = Table I, guinea pig brain homogenates (n = 3-5), read-out: σ1: Ki for inhibition of the binding of [3H](+)-pentazocine
[2] = Table II, footnote b not given, read-out: σ2 (binding to σ2 receptors)
[3] = Table II, footnote a not given, read-out: σ1 (binding to σ1 receptors)

COc1ccc(C)cc1NC(=O)OC1CC2CCCC(C1)N2CCCc1ccc(N)cc1 (stereo not shown)
Ki (σ2 receptors): 10.5 nM

COc1ccc(C)cc1NC(=O)OC1CC2CCCC(C1)N2C/C=C/c1ccc(N)cc1 (stereo not shown)
Ki (σ2 receptors): 3.6 nM

COc1ccc(C)cc1NC(=O)OC1CC2CCCC(C1)N2CCc1ccccc1 (stereo not shown) [Compound 6a]
Ki (σ2 receptors): 1.2 ± 0.1 nM | Ki (σ1 receptors): 59.9 ± 4.6 nM

COc1ccc(C)cc1NC(=O)OC1CC2CCCC(C1)N2CCCc1ccccc1 (stereo not shown) [Compound 6b]
Ki (σ2 receptors): 1.97 ± 0.12 nM | Ki (σ1 receptors): 72.9 ± 1.6 nM

COc1ccc(C)cc1NC(=O)OC1CC2CCCC(C1)N2CCCCc1ccccc1 (stereo not shown) [Compound 6c]
Ki (σ2 receptors): 2.92 ± 0.21 nM | Ki (σ1 receptors): 65.5 ± 4.3 nM

COc1ccc(C)cc1NC(=O)OC1CC2CCCC(C1)N2CCCCCc1ccccc1 (stereo not shown) [Compound 6d]
Ki (σ2 receptors): 1.82 ± 0.19 nM | Ki (σ1 receptors): 17.3 ± 1.2 nM

COc1ccc(C)cc1NC(=O)OC1CC2CCCC(C1)N2CCCCCCc1ccccc1 (stereo not shown) [Compound 6e]
Ki (σ2 receptors): 7.61 ± 0.41 nM | Ki (σ1 receptors; [1]): 214 ± 23.5 nM

COc1ccc(C)cc1NC(=O)OC1CC2CCCC(C1)N2CCCCCCCc1ccccc1 (stereo not shown) [Compound 6f]
Ki (σ2 receptors): 7.6 ± 0.18 nM | Ki (σ1 receptors; [1]): 230 ± 28.6 nM

COc1ccc(C)cc1NC(=O)OC1CC2CCCC(C1)N2CCc1ccc(I)cc1 (stereo not shown) [Compound 7a]
Ki (σ2 receptors; [2]): 141 ± 8.36 nM | Ki (σ1 receptors; [3]): 175 ± 6.71 nM

COc1ccc(C)cc1NC(=O)OC1CC2CCCC(C1)N2CCc1ccc(NC(=O)OC(C)(C)C)cc1 (stereo not shown) [Compound 7b]
Ki (σ2 receptors; [2]): > 1000 nM | Ki (σ1 receptors; [3]): > 1000 nM

COc1ccc(C)cc1NC(=O)OC1CC2CCCC(C1)N2CCc1ccc(N)cc1 (stereo not shown) [Compound 7c]
Ki (σ2 receptors): 7.78 ± 0.61 nM | Ki (σ1 receptors; [3]): > 1000 nM

COc1ccc(C)cc1NC(=O)OC1CC2CCCC(C1)N2Cc1ccccc1 (stereo not shown) [—, reference compound]
Ki (σ2 receptors): 3.06 ± 0.83 nM | Ki (σ1 receptors): 92.5 ± 11 nM
